According to US8193172B2, “Methods for the treatment of major depressive disorder using glucocorticoid receptor antagonists” (Pop Test Cortisol LLC, priority 2001, dated 2012):
Like-named read-outs stand apart in the source and are kept apart here.

Experiments:
[1] = test system: Major Depressive Disorder patients; test: Double blind, 4 week, paroxetine controlled study of Org 34517 in depressed patients (HAMD-21, afternoon cortisol test); format: in vivo; conditions: daily dose 150-300 mg, oral, FIG. 1
Description: A double blind, 4 week, paroxetine controlled study of Org 34517 in depressed patients was carried out. Paroxetine is a selective serotonin re-uptake inhibitor which is recognized as an effective antidepressant for major depression.
Patients were randomly allocated to one of three treatment groups. Group I patients (50 patients) received 2 capsules with 75 mg of Org 34517 and one placebo (total daily dose 150 mg) for the first 2 weeks and 2 capsules with 75 mg Org 34517 and 1 capsule with 150 mg (total daily dose 300 mg) the next 2 weeks; Group II patients (46 patients) received 3 capsules with 150 mg Org 34517 (total daily dose 450 mg) in the first 2 weeks and 4 capsules of Org 34517 (total daily dose 600 mg) in the next 2 weeks; Group III patients (44 patients) received 2 capsules with 10 mg paroxetine and one placebo capsule (total daily dose 20 mg) for the first 2 weeks, followed by 2 capsules of 10 mg and one capsule of 20 mg paroxetine (total daily dose 40 mg) in the next 2 weeks. Medication was administered orally in the morning. Efficacy assessment was done on days 4, 7, 10, 14, 21, 28 and 35 by using the 21-item HAMD scale.
The cortisol levels were determined using the afternoon cortisol test (ACT) as described by Halbreich et al. [J. Clin. Endocrinol. Metab. (1982) 54 (6), 1262].

[2] = test system: psychosis associated with psychotic major depression; conditions: cited from earlier work
[3] = test system: psychosis associated with psychotic major depression; conditions: mifepristone 8-12 mg/kg/day over 4 days; cited from earlier work

In the case of `CC#C[C@]1(O)CC[C@H]2[C@@H]3CCC4=CC(=O)CCC4=C3[C@@H](c3ccc4c(c3)OCO4)C[C@@]21C` [Org 34517, (11β,17β)-11-(1,3-benzodioxol-5-yl)-17-hydroxy-17-(1-propynyl)estra-4,9-dien-3-one], the “p of correlation between HAMD-21 change and cortisol (ACT) change” value ([1]; HAMD-21 change scored at day 14, cortisol change at 28 days) is reported as 0.02 and the “clinical improvement (HAMD decrease) in relation to cortisol change” value [1] is reported as “most prominent clinical improvement (HAMD decrease) is seen in patients were cortisol is not increased”.
For `CC#C[C@]1(O)CC[C@H]2[C@@H]3CCC4=CC(=O)CCC4=C3[C@@H](c3ccc(N(C)C)cc3)C[C@@]21C` [mifepristone, 17β-hydroxy-11β-(4-dimethylaminophenyl)-17α-(1-propynyl)estra-4,9-dien-3-one], the “change in Brief Psychiatric Rating Scale” value ([2]; daily dose 50 mg) is listed as 33%, the “change in Brief Psychiatric Rating Scale” value ([2]; daily dose 600 mg) is listed as 40% and the “change in Brief Psychiatric Rating Scale” value ([2]; daily dose 1200 mg) is listed as 52%. The “effect in the treatment of psychosis associated with psychotic major depression” value [3] was “effective”.
